The nature of the series: solubility of ketoconazole in oleic acid. It is filed as physicochemical. The note with it: ambient room temperature, 48 h. How it is done:
The solubility of ketoconazole in oleic acid was assessed at ambient room temperature using the method described in Example 1. Samples containing 5, 10, 15 and 33 wt. % of ketoconazole were mixed with oleic acid and the appearance of undissolved ketoconazole was investigated after 24 and 48 h. After 24 hours samples containing 5 wt. % ketoconazole were completely dissolved and after 48 h samples containing 10 wt. % of ketoconazole were completely homogenous and all ketoconazole was dissolved. Thus the solubility of ketoconazole in oleic acid is estimated to be about 10 wt. %.

Here are results for one compound from patent US20030190357A1, “Compositions for delivery of a cortisol antagonist” (priority 2000, published 2003).

Turning to `CC(=O)N1CCN(c2ccc(OCC3COC(Cn4ccnc4)(c4ccc(Cl)cc4Cl)O3)cc2)CC1` (stereo not shown) [ketoconazole, Ketoconazole], the “solubility of ketoconazole in oleic acid” value was “about 10 wt. %”.
